What was measured:
C. acnes strain K8 = experiment: Minimum inhibitory concentration (MIC) of cosmetic excipients, strain K8; assay type: cell-based, Cutibacterium acnes; conditions: % w/vol, anaerobic 3 days at 37° C, visual growth scoring
Description: (§1) In microbiology, the MIC is the lowest concentration of a chemical which prevents visible growth of bacterium. The resulted MIC value depends both on the microorganism and the test compound. The MIC is determined by preparing concentrations series of the test compound in vitro, incubating the solutions with the separate batches of cultured bacteria, and measuring the results using agar dilution or broth microdilution. For the experiments with C. acnes strains C3 and K8, media comprising yeast extract soy peptone and dextrose were used. The MIC is determined by turbidity.
(§2) A total of 125 cosmetic excipients were tested for their compatibility with C. acnes strains C3 and K8. Hydrophilic compounds were tested in a 96-well plate liquid broth format, poorly soluble compounds were pre-dissolved in DMSO before dilution in liquid broth and hydrophobic or solid compounds were tested in an agar well diffusion test assay. The different dilutions of the test excipients in media were prepared in Falcon tubes and then distributed in a deep well plate using a multistepper. Each well received 1.2 ml and was subsequently inoculated with 120 μl of C. acnes bacteria suspension (strain C3 and K8). From the deep well plate 200 μl were transferred in each well of a clear 96 well replicate plate. The leftover was discarded. The plates were then incubated anaerobically for 3 days at 37° C. Following incubation, the test plates were visually examined and wells were scored for growth or complete growth inhibition to define the minimum inhibitory concentration.
(§3) These excipients are listed in the below table with their compatibility values for C. acnes strains C3 and K8. The compatibility values represent the MIC value of the listed ingredients with the tested C. acnes strains. At this concentration [% w/vol] the tested compound starts interfering with the growth of the tested strains. The compounds can be used in formulations at concentrations below this concentration.

C. acnes strain C3 = experiment: Minimum inhibitory concentration (MIC) of cosmetic excipients, strain C3; assay type: cell-based, Cutibacterium acnes; conditions: % w/vol, anaerobic 3 days at 37° C, visual growth scoring
Description: as §1, §2, §3

Compound | COMPATABILITY VALUE K8 (MIC) (C. acnes strain K8) | COMPATABILITY VALUE C3 (MIC) (C. acnes strain C3)
CC(CO)CO [methylpropanediol] | 4.00% | 4.00%
O=C(O)CC(O)(CC(=O)O)C(=O)O [citric acid] | 0.08% | 
CCCCCCC(O)CO (stereo not drawn) [caprylyl glycol] | 0.18% | 0.18%
peg-40 hydrogenated castor oil | 1.00% | 1.00%
ethylhexyl cocoate | 10.00% | 10.00%
tocopherol | 1.50% | 1.50%
CC(=O)Oc1c(C)c(C)c2c(c1C)CCC(C)(CCC[C@H](C)CCC[C@H](C)CCCC(C)C)O2 (stereo partly drawn) [tocopheryl acetate] | 1.00% | 
